Experimental data from patent US8084470B2, “Substituted nicotinamide compounds and uses thereof” (Gruenenthal GmbH, priority 2007, dated 2011).

Experiments:
hKCNQ2/3 [1] = target: T1, hKCNQ2/3 (Homo sapiens, UniProt O43525+O43526); experiment: Voltage clamp (patch-clamp) measurements; format: cell-based; set-up: expressed in transfected cells; host or cells: CHO-K1 (stably transfected); conditions: for MAN rel eff @ 10 μm [RG = 1]: test substance 10 μM at −40 mV, increase in current standardized to retigabine (10 μM) effect = 1
Description: Voltage Clamp Measurements
In order to confirm a KCNQ2/3-agonistic action of the substances electrophysiologically, patch-clamp measurements (Hamill et al., 1981) were carried out in voltage clamp mode on a stably transfected hKCNQ2/3 CHO-K1 cell line. After formation of the gigaseal, the cells were first clamped at a holding potential of −60 mV. Thereafter, depolarizing voltage jumps were applied up to a potential of +20 mV (increment: 20 mV, duration: 1 second) in order to confirm the functional expression of KCNQ2/3-typical currents. The testing of the substances was carried out at a potential of −40 mV. The increase in current induced by retigabine (10 μM) at −40 mV was first recorded as a positive control on each cell. After complete washing out of the retigabine effect (duration: 80 s), the test substance (10 μM) was applied. The increase in current induced by the test substance was standardized to the retigabine effect and indicated as the relative efficacy (see below). Hamill O P, Marty A, Neher E, Sakmann B, Sigworth F J.: Improved patch-clamp techniques for high-resolution current recording from cells and cell-free membrane patches. Pflugers Arch. 1981 August; 391(2):85-100. Voltage-clamp measurements were carried out only for selected compounds: […]

hKCNQ2/3 [2] = target: T1, hKCNQ2/3; experiment: Fluorescence assay using a voltage sensitive dye; format: cell-based; set-up: expressed in transfected cells; host or cells: CHO-K1
Description: Biological Data Fluorescence Assay Using a Voltage Sensitive Dye
Human CHO-K1 cells expressing KCNQ2/3 channels are cultivated adherently at 37° C., 5% CO2 and 95% humidity in cell culture bottles (e.g. 80 cm^2 TC flasks, Nunc) with DMEM-high glucose (Sigma Aldrich, D7777) including 10% FCS (PAN Biotech, e.g. 3302-P270521) or alternatively with MEM Alpha Medium (1×, liquid, Invitrogen, #22571), 10% fetal calf serum (FCS) (Invitrogen, #10270-106, heat-inactivated) and the necessary selection antibiotics.
Before being distributed for the measurements, the cells are washed with a 1×DPBS buffer without Ca^2+/Mg^2+ (e.g. Invitrogen, #14190-094) and detached from the bottom of the culture vessel by means of Accutase (PAA Laboratories, #L11-007) (incubation with Accutase for 15 min at 37° C.). The cell count then present is determined using a CASY™ cell counter (TCC model, Schärfe System) in order subsequently to apply, according to density optimization for the individual cell line, 20,000-30,000 cells/well/100 μl of the described nutrient medium to 96-well measuring plates of the Corning™ CellBIND™ type (Flat Clear Bottom Black Polystyrene Microplates, #3340). Incubation is then carried out for one hour at room temperature, without gassing or adjusting the humidity, followed by incubation for 24 hours at 37° C., 5% CO2 and 95% humidity.
The voltage-sensitive fluorescent dye from the Membrane Potential Assay Kit (Red™ Bulk format part R8123 for FLIPR, MDS Analytical Technologies™) is prepared by dissolving the contents of a vessel Membrane Potential Assay Kit Red Component A in 200 ml of extracellular buffer (ES buffer, 120 mM NaCl, 1 mM KCl, 10 mM HEPES, 2 mM CaCl2, 2 mM MgCl2, 10 mM glucose; pH 7.4). After removal of the nutrient medium, the cells are washed with 200 μl of ES buffer, then covered with a layer of 100 μl of the dye solution prepared above and incubated for 45 min at room temperature with the exclusion of light.
The fluorescence measurements are carried out with a BMG Labtech FLUOstar™ or BMG Labtech NOVOstar™ or BMG Labtech POLARstar™ instrument (525 nm excitation, 560 nm emission, Bottom Read mode). After incubation of the dye, 50 μl of the test substances in the desired concentrations, or 50 μl of ES buffer for control purposes, are introduced into separate cavities of the measuring plate and incubated for 30 min at room temperature while being shielded from light. The fluorescence intensity of the dye is then measured for 5 min and the fluorescence value F1 of each well is thus determined at a given, constant time. 15 μL of a 100 mM KCl solution ([…]) are then added to each well. The change in fluorescence is subsequently measured until all the relevant measured values have been obtained (mainly 5-30 min). At a given time after KCl application, a fluorescence value F2 is determined, in this case at the time of the fluorescence peak.
For calculation, the fluorescence intensity F2 is compared with the fluorescence intensity F1, and the agonistic activity of the target compound on the potassium channel is determined therefrom. F2 and F1 are calculated as follows:
[formula] In order to determine whether a substance has an agonistic activity,
[formula] for example, can be compared with
[formula] of control cells.
[formula] is determined by adding to the reaction batch only the buffer solution instead of the substance to be tested, determining the value F1K of the fluorescence intensity, adding the potassium ions as described above and measuring a value F2K of the fluorescence intensity. Then F2K and F1K are calculated as follows:
[formula] A substance has an agonistic activity on the potassium channel when
[formula] is greater than
[formula] Independently of the comparison of
[formula] it is also possible to conclude that a target compound has agonistic activity if an increase in
[formula] is to be observed as the dosage of the target compound increases. […]

[3] = system: male rats (Sprague-Dawley); experiment: Formalin test, rat (second phase); format: in vivo; conditions: pain rate vs vehicle control, late phase
Description: The investigations to determine the antinociceptive activity of the compounds were carried out in the formalin test on male rats (Sprague-Dawley, 150-170 g).
In the formalin test, a distinction is made between the first (early) phase (0-15 min after formalin injection) and the second (late) phase (15-60 min after formalin injection) (D. Dubuisson, S. G. Dennis, Pain 4, 161-174 (1977)). The early phase, as a direct reaction to the formalin injection, represents a model for acute pain, while the late phase is regarded as a model for persistent (chronic) pain (T. J. Coderre, J. Katz, A. L. Vaccarino, R. Meizack, Pain, Vol. 52, p. 259, 1993).
The compounds according to the invention were investigated in the second phase of the formalin test in order to obtain information about the activity of substances in the case of chronic/inflammatory pain.
A nociceptive reaction was induced in freely mobile test animals by means of a single subcutaneous formalin injection (50 μl, 5% strength) into the dorsal side of the right rear paw, the reaction manifesting itself in the following behaviour parameters: lifting and holding of the affected paw (score 1), shaking or twitching (score 2), licking and biting (score 3). The differing behaviors induced by the formalin injection were detected continuously by observation of the animals in the late phase of the formalin test and were weighted differently in an evaluation. Normal behavior, in which the animal puts its weight on all four paws equally, was recorded as score 0. The time of administration before the formalin injection was chosen in dependence on the mode of administration of the compounds according to the invention (intraperitoneal: 15 min, intravenous: 5 min). After injection of substances that have antinociceptive activity in the formalin test, the described behaviours (score 1-3) of the animals are reduced or even eliminated. […] The nociceptive behaviour was calculated as the so-called pain rate (PR). […] Based on the PR calculations, the activity of the substance was determined as the change compared with the control in percent.

rat = experiment: Chung test on the rat; format: in vivo; conditions: iv, i.v. administration
Excerpt: In addition, Example 89 was investigated in the Chung test on the rat.

Row | SMILES | MAN rel eff @ 10 μm [RG = 1] (hKCNQ2/3 [1]) | EC50 (hKCNQ2/3 [2]) | further results
1 | O=C(NCC1CCCCC1)c1cccnc1SCCS(=O)(=O)c1ccccc1 [Example 56, N-(cyclohexylmethyl)-2-(2-(phenylsulfonyl)ethylthio)nicotinamide] | 1.06 | 1010 nM | Change in % ([3]; 2.15 mg/kg i.v.): −34.1%
2 | O=C(NCCC1CCCCC1)c1cccnc1SCCS(=O)(=O)c1ccccc1 [Example 58, N-(2-cyclohexylethyl)-2-(2-(phenylsulfonyl)ethylthio)nicotinamide] | 0.47 | 1180 nM | 
3 | Cc1ccc(CNC(=O)c2cccnc2SCCS(=O)(=O)c2ccccc2)o1 [Example 61, N-(5-methylfuran-2-ylmethyl)-2-(2-(phenylsulfonyl)ethylthio)nicotinamide] | 0.81 | 3470 nM | 
4 | Cc1cccc(CNC(=O)c2cccnc2SCCS(=O)(=O)c2ccccc2)c1 [Example 65, 2-(2-(phenylsulfonyl)ethylthio)-N-(3-tolylmethyl)nicotinamide] | 0.4 | 580 nM | 
5 | O=C(NCc1cccs1)c1cccnc1SCCSc1cccc(C(F)(F)F)c1 [Example 73, N-(thiophen-2-ylmethyl)-2-(2-(3-(trifluoromethyl)phenylthio)ethylthio)-nicotinamide] |  |  | Change in % ([3]; 1 mg/kg i.v.): −29.9%
6 | O=C(NCc1cccs1)c1cccnc1SCCS(=O)(=O)c1ccccc1 [Example 89, 2-(2-(phenylsulfonyl)ethylthio)-N-(thiophen-2-ylmethyl)nicotinamide] |  | 2280 nM | ED50 (rat): 6.3 mg/kg; EC50 (hKCNQ2/3 [1]; patch-clamp, hKCNQ2/3 CHO-K1 cell line, read-out: MAN EC50): 1010 nM; Change in % ([3]; 6.81 mg/kg i.v.): −74.2%
7 | O=C(NCc1ccccn1)c1cccnc1SCCS(=O)(=O)c1cccc(C(F)(F)F)c1 [Example 90, N-(pyridin-2-ylmethyl)-2-(2-(3-(trifluoromethyl)phenylsulfonyl)ethylthio)-nicotinamide] | 0.79 | 2490 nM | 
